Experimental data from patent US20250231185A1, “Coronavirus T Cell Epitopes, Megapools and Uses Thereof” (La Jolla Institute for Immunology, priority 2021, published 2025).

Test system: CD4+ T cells
Assay: Meta-analysis of published SARS-CoV-2 CD4 T cell epitope data curated in the IEDB (25 studies)
Format: cell-based, human
[1] = CD4RE megapool peptides (non-spike SARS-CoV-2 CD4 epitopes), dominant = recognized by 3 or more donors/different studies
[2] = CD4R (D) Megapool, non-spike antigens, dominant = recognized in 3 or more donors/studies

Substance	Dominant [1]	Dominant [2]
2637 (ASWFTALTQHGKEDL) [compound 2637]	Yes (more dominant epitopes are defined by being recognized by 3 or more donors/different studies)	
2623 (SELVIGAVILRGHLR) [compound 2623]	Yes (more dominant epitopes are defined by being recognized by 3 or more donors/different studies)	
2640 (IGYYRRATRRIRGGD) [compound 2640]	Yes (more dominant epitopes are defined by being recognized by 3 or more donors/different studies)	
2307 (SGFAAYSRYRIGNYK) [compound 2307]		Yes (more dominant epitopes are defined by being recognized by 3 or more donors/different studies)
2289 (VLAAVYRINWITGGI) [compound 2289]		Yes (more dominant epitopes are defined by being recognized by 3 or more donors/different studies)
2626 (RGHLRIAGHHLGRCD) [compound 2626]	Yes (more dominant epitopes are defined by being recognized by 3 or more donors/different studies)	
2315 (NKDGIIWVATEGALN) [compound 2315]		Yes (more dominant epitopes are defined by being recognized by 3 or more donors/different studies)
2645 (KDGIIWVATEGALNT) [compound 2645]	Yes (more dominant epitopes are defined by being recognized by 3 or more donors/different studies)	
2312 (YYRRATRRIRGGDGK) [compound 2312]		Yes (more dominant epitopes are defined by being recognized by 3 or more donors/different studies)
2319 (DAALALLLLDRLNQL) [compound 2319]		Yes (more dominant epitopes are defined by being recognized by 3 or more donors/different studies)
2643 (RWYFYYLGTGPEAGL) [compound 2643]	Yes (more dominant epitopes are defined by being recognized by 3 or more donors/different studies)	
2330 (PSGTWLTYTGAIKLD) [compound 2330]		Yes (more dominant epitopes are defined by being recognized by 3 or more donors/different studies)
2311 (IGYYRRATRRIRGGD) [compound 2311]		Yes (more dominant epitopes are defined by being recognized by 3 or more donors/different studies)
2646 (AIVLQLPQGTTLPKG) [compound 2646]	Yes (more dominant epitopes are defined by being recognized by 3 or more donors/different studies)	
2674 (QEEVQELYSPIFLIV) [compound 2674]	Yes (more dominant epitopes are defined by being recognized by 3 or more donors/different studies)	
2298 (IAGHHLGRCDIKDLP) [compound 2298]		Yes (more dominant epitopes are defined by being recognized by 3 or more donors/different studies)
2618 (VLAAVYRINWITGGI) [compound 2618]	Yes (more dominant epitopes are defined by being recognized by 3 or more donors/different studies)	
2630 (KEITVATSRTLSYYK) [compound 2630]	Yes (more dominant epitopes are defined by being recognized by 3 or more donors/different studies)	
2619 (YRINWITGGIAIAMA) [compound 2619]	Yes (more dominant epitopes are defined by being recognized by 3 or more donors/different studies)	
2650 (AAEASKKPRQKRTAT) [compound 2650]	Yes (more dominant epitopes are defined by being recognized by 3 or more donors/different studies)	
2617 (QFAYANRNRFLYIIK) [compound 2617]	Yes (more dominant epitopes are defined by being recognized by 3 or more donors/different studies)	
2323 (KRTATKAYNVTQAFG) [compound 2323]		Yes (more dominant epitopes are defined by being recognized by 3 or more donors/different studies)
2331 (GTWLTYTGAIKLDDK) [compound 2331]		Yes (more dominant epitopes are defined by being recognized by 3 or more donors/different studies)

Substance	Dominant [1]	Dominant [2]
2318 (AGNGGDAALALLLLD) [compound 2318]		Yes (more dominant epitopes are defined by being recognized by 3 or more donors/different studies)
2632 (SRTLSYYKLGASQRV) [compound 2632]	Yes (more dominant epitopes are defined by being recognized by 3 or more donors/different studies)	
2648 (DAALALLLLDRLNQL) [compound 2648]	Yes (more dominant epitopes are defined by being recognized by 3 or more donors/different studies)	
2303 (SRTLSYYKLGASQRV) [compound 2303]		Yes (more dominant epitopes are defined by being recognized by 3 or more donors/different studies)
2622 (TNILLNVPLHGTILT) [compound 2622]	Yes (more dominant epitopes are defined by being recognized by 3 or more donors/different studies)	
2300 (IKDLPKEITVATSRT) [compound 2300]		Yes (more dominant epitopes are defined by being recognized by 3 or more donors/different studies)
2316 (KDGIIWVATEGALNT) [compound 2316]		Yes (more dominant epitopes are defined by being recognized by 3 or more donors/different studies)
2659 (PSGTWLTYTGAIKLD) [compound 2659]	Yes (more dominant epitopes are defined by being recognized by 3 or more donors/different studies)	
2321 (AAEASKKPRQKRTAT) [compound 2321]		Yes (more dominant epitopes are defined by being recognized by 3 or more donors/different studies)
2638 (SWFTALTQHGKEDLK) [compound 2638]	Yes (more dominant epitopes are defined by being recognized by 3 or more donors/different studies)	
2652 (KRTATKAYNVTQAFG) [compound 2652]	Yes (more dominant epitopes are defined by being recognized by 3 or more donors/different studies)	
2654 (LIRQGTDYKHWPQIA) [compound 2654]	Yes (more dominant epitopes are defined by being recognized by 3 or more donors/different studies)	
2636 (SGFAAYSRYRIGNYK) [compound 2636]	Yes (more dominant epitopes are defined by being recognized by 3 or more donors/different studies)	
2301 (KEITVATSRTLSYYK) [compound 2301]		Yes (more dominant epitopes are defined by being recognized by 3 or more donors/different studies)
2292 (MWLSYFIASFRLFAR) [compound 2292]		Yes (more dominant epitopes are defined by being recognized by 3 or more donors/different studies)
2309 (SWFTALTQHGKEDLK) [compound 2309]		Yes (more dominant epitopes are defined by being recognized by 3 or more donors/different studies)
2345 (QEEVQELYSPIFLIV) [compound 2345]		Yes (more dominant epitopes are defined by being recognized by 3 or more donors/different studies)
2333 (ILLNKHIDAYKTFPP) [compound 2333]		Yes (more dominant epitopes are defined by being recognized by 3 or more donors/different studies)
2326 (YKHWPQIAQFAPSAS) [compound 2326]		Yes (more dominant epitopes are defined by being recognized by 3 or more donors/different studies)
2328 (ASAFFGMSRIGMEVT) [compound 2328]		Yes (more dominant epitopes are defined by being recognized by 3 or more donors/different studies)
2621 (MWLSYFIASFRLFAR) [compound 2621]	Yes (more dominant epitopes are defined by being recognized by 3 or more donors/different studies)	
2294 (SELVIGAVILRGHLR) [compound 2294]		Yes (more dominant epitopes are defined by being recognized by 3 or more donors/different studies)
